# In patent US20070191406A1, “Heterocyclic antiviral compounds” (Roche Palo Alto LLC, priority 2006, published 2007):
# Structures can show the parent of a compound that is named as a salt.
# Biological target: T1, CCR5 (Homo sapiens, UniProt P51681)
# T1 construct: host or cells: CEM-NKr-CCR5-Luc
# Assay: CCR5-Mediated CCF Assay
# Assay type: cell-based
# Conditions: Hela-R5 cells (gp160 from R5-tropic virus, HIV-1 Tat) co-cultured 24 hrs with CEM-NKr-CCR5-Luc cells; luciferase readout
# Description: CCF assay was performed as described before (C. Ji, J. Zhang, N. Cammack and S. Sankuratri, J. Biomol. Screen. 2006 11(6):652-663). Hela-R5 cells (express gp160 from R5-tropic virus and HIV-1 Tat) were plated in 384 well white culture plates (BD Bioscience, Palo Alto, Calif.) at 7.5×10^3 cells per well in phenol red-free Dulbecco's Modified Eagle Medium (DMEM) supplemented with 10% FBS, 1× Pen-Strep, 300 μg/mL G418, 100 μg/mL hygromycin, and 1 μg/mL Doxycycline (Dox) (BD Bioscience, Palo Alto, Calif.), using Multimek (Beckman, Fullerton, Calif.) and incubated at 37° C. overnight to induce the expression of gp160. Ten μL diluted compounds in medium containing 5% DMSO were added to the cells, followed by the addition of CEM-NKr-CCR5-Luc (obtained from NIH AIDS Research & Reference Reagents Program) that expresses CD4 and CCR5 and carries a HIV-2 long terminal repeat (LTR)-driven luciferase reporter gene at 1.5×10^4 cells/15 μL/well and incubated for 24 hrs. At the end of co-culture, 15 μL of Steady-Glo luciferase substrate was added into each well, and the cultures were sealed and gently shaken for 45 min. The luciferase activity were measured for 10 sec per well as luminescence by using 16-channel TopCount NXT (PerkinElmer, Shelton, Conn.) with 10 min dark adaptation and the readout is count per second (CPS). For the drug interaction experiments, small molecule compounds or antibodies were serially diluted in serum-free and phenol red-free RPMI containing 5% DMSO (CalBiochem, La Jolla, Calif.) and 1× Pen-Strep. Five μL each of the two diluted compound or mAb to be tested for drug-drug interactions were added to the Hela-R5 cells right before the addition of target cells.
# T1 sequence (P51681 whole entry): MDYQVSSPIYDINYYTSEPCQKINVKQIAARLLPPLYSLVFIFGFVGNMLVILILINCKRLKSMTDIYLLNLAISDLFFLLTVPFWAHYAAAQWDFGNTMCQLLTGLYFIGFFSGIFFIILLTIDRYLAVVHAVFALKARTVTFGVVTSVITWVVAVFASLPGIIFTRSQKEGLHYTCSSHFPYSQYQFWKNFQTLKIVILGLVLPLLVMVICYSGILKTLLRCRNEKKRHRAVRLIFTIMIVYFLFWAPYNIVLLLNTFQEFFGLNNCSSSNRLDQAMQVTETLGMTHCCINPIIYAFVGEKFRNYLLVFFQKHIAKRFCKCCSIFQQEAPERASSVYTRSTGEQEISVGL
row,Compound,IC50
1,COC(=O)[C@H]1CC[C@@H](C(=O)N(CCCN2C[C@@H]3CN(C(=O)c4c(C)ncnc4C)C[C@@H]3C2)c2ccc(C)c(Cl)c2)CC1 [I-31],3.5 nM
2,"Cc1ccc(N(CCCN2CC3CN(C(=O)c4c(C)cccc4C)CC3C2)C(=O)[C@@H]2CC[C@H](C(=O)O)C2)cc1Cl (stereo partly drawn) [I-4, (1S,3R)-3-((3-Chloro-4-methyl-phenyl)-{3-[5-(2,6-dimethyl-benzoyl)-hexahydro-pyrrolo[3,4-c]pyrrol-2-yl]-propyl}-carbamoyl)-cyclopentanecarboxylic acid, trifluoro-acetate salt]",9.8 nM
3,"Cc1cccc(C)c1C(=O)N1CC2CN(CC[C@H](NC(=O)C3CCCC3C(=O)O)c3ccccc3)CC2C1 (stereo partly drawn) [I-33, 2-{(S)-3-[5-(2,6-Dimethyl-benzoyl)-hexahydro-pyrrolo[3,4-c]pyrrol-2-yl]-1-phenyl-propylcarbamoyl}-cyclopentanecarboxylic acid]",1.7 nM

# Continued by falling IC50, values first:
row,IC50,Compound
1,7.4 nM,"Cc1ccnc(C)c1C(=O)N1CC2CN(CC[C@H](NC(=O)C3CCC(=O)C3)c3cccc(F)c3)CC2C1 (stereo partly drawn) [I-23, 3-Oxo-cyclopentanecarboxylic acid [(S)-3-[5-(2,4-dimethyl-pyridine-3-carbonyl)-hexahydro-pyrrolo[3,4-c]pyrrol-2-yl]-1-(3-fluoro-phenyl)-propyl]-amide]"
2,6.5 nM,"Cc1ncnc(C)c1C(=O)N1CC2CN(CC[C@H](NC(=O)C3CCCC(=O)C3)c3cccc(F)c3)CC2C1 (stereo partly drawn) [I-24, 3-Oxo-cyclohexanecarboxylic acid [(S)-3-[5-(4,6-dimethyl-pyrimidine-5-carbonyl)-hexahydro-pyrrolo[3,4-c]pyrrol-2-yl]-1-(3-fluoro-phenyl)-propyl]-amide]"
